pIC50: −log10 of the molar value.

The assay deals with human monocyte stimulated cytokine production (TNF-α). The experiment in a line: Monocyte Assay (LPS-stimulated TNF-α production). The class given is cell-based. The note with it: human CD14+ monocytes, 200 ng/mL LPS, 24 hrs, TNF-α by ELISA. Here is the method: Effect of IKK-β inhibition on human monocyte stimulated cytokine production was assessed as follows: Monocytes were isolated from heparinized whole blood by Ficoll gradient, followed by purification of CD14+ cells using MACS magnetic cell separation beads. Isolated monocytes were then adhered to 96-well culture plates at 1×10^6 cells/mL in RPMI 1640 10% FBS (JRH Biosciences, Lenexa Kans.) for 2 h. to further enrich the monocyte population. The media was then removed, cells washed once with RPMI 1640, and 0.125 mL RPMI 1640 10% FBS was added to the wells. Test compounds are added to the wells 30 minutes prior to stimulation with a final vehicle concentration of 0.1% DMSO. Monocytes were activated by the addition of 200 ng/mL endotoxin (LPS; E. coli serotype 026:B6) (Sigma, St. Louis, Mo.) and incubated for 24 hrs at 37 C. Cell-free supernates were analyzed by ELISA for TNF-α using Pharmingen matched pair Abs. Viability of the cells was determined by10% trypan blue exclusion.
The compound `NCCS(=O)(=O)N1CCC(c2c[nH]c3c(C(N)=O)cc(-c4ccccc4)cc23)CC1` [Example 1, 3-{1-[(2-aminoethyl)sulfonyl]-4-piperidinyl}-5-phenyl-1H-indole-7-carboxamide] gave a pIC50 of more than 5.00.
With `CN(C)CCS(=O)(=O)N1CCC(c2c[nH]c3c(C(N)=O)cc(-c4ccccc4)cc23)CC1` [Example 2, 3-(1-{[2-(dimethylamino)ethyl]sulfonyl}-4-piperidinyl)-5-phenyl-1H-indole-7-carboxamide], the pIC50 was more than 5.00.
The compound `CN(C)CCCS(=O)(=O)N1CCC(c2c[nH]c3c(C(N)=O)cc(-c4ccccc4)cc23)CC1` [Example 3, 3-(1-{[3-(dimethylamino)propyl]sulfonyl}-4-piperidinyl)-5-phenyl-1H-indole-7-carboxamide] had a pIC50 of more than 5.00.
`CN1CCN(CCCS(=O)(=O)N2CCC(c3c[nH]c4c(C(N)=O)cc(-c5ccccc5)cc34)CC2)CC1` [Example 4, 3-(1-{[3-(4-methyl-1-piperazinyl)propyl]sulfonyl}-4-piperidinyl)-5-phenyl-1H-indole-7-carboxamide] gave a pIC50 of more than 5.00.
For the compound `NC(=O)c1cc(-c2ccccc2)cc2c(C3CCN(S(=O)(=O)CCCN4CCCCC4)CC3)c[nH]c12` [Example 5, 5-phenyl-3-(1-{[3-(1-piperidinyl)propyl]sulfonyl}-4-piperidinyl)-1H-indole-7-carboxamide], the pIC50 is more than 5.00.
In the case of `NC(=O)c1cc(-c2ccccc2)cc2c(C3CCN(S(=O)(=O)CCCN4CCOCC4)CC3)c[nH]c12` [Example 6, 3-(1-{[3-(4-morpholinyl)propyl]sulfonyl}-4-piperidinyl)-5-phenyl-1H-indole-7-carboxamide] it was more than 5.00; in that of `NC(=O)c1cc(-c2ccccc2)cc2c(C3CCN(S(=O)(=O)CCCN4CCCC4)CC3)c[nH]c12` [Example 7, 5-phenyl-3-(1-{[3-(1-pyrrolidinyl)propyl]sulfonyl}-4-piperidinyl)-1H-indole-7-carboxamide], more than 5.00.
Compound `NC(=O)c1cc(-c2ccsc2)cc2c(C3CCN(S(=O)(=O)CCCN4CCCC4)CC3)c[nH]c12` [Example 8, 3-(1-{[3-(1-pyrrolidinyl)propyl]sulfonyl}-4-piperidinyl)-5-(3-thienyl)-1H-indole-7-carboxamide] gave a pIC50 of more than 5.00.
`CN(C)CCCS(=O)(=O)N1CCC(c2c[nH]c3c(C(N)=O)cc(-c4ccsc4)cc23)CC1` [Example 9, 3-(1-{[3-(dimethylamino)propyl]sulfonyl}-4-piperidinyl)-5-(3-thienyl)-1H-indole-7-carboxamide] gave a pIC50 of more than 5.00.
The compound `CN(C)CCCS(=O)(=O)N1CCC(c2c[nH]c3c(C(N)=O)cc(-c4cccs4)cc23)CC1` [Example 10, 3-(1-{[3-(dimethylamino)propyl]sulfonyl}-4-piperidinyl)-5-(2-thienyl)-1 indole-7-carboxamide] showed a pIC50 of more than 5.00.
In the case of `NC(=O)c1cc(-c2cccs2)cc2c(C3CCN(S(=O)(=O)CCCN4CCCC4)CC3)c[nH]c12` [Example 11, 3-(1-{[3-(1-pyrrolidinyl)propyl]sulfonyl}-4-piperidinyl)-5-(2-thienyl)-1 indole-7-carboxamide], the pIC50 was more than 5.00.
`CC1CCCN1CCCS(=O)(=O)N1CCC(c2c[nH]c3c(C(N)=O)cc(-c4cccs4)cc23)CC1` (stereo not shown) [Example 12, 3-(1-{[3-(2-methyl-1-pyrrolidinyl)propyl]sulfonyl}-4-piperidinyl)-5-(2-thienyl)-11 indole-7-carboxamide]: the pIC50 was more than 5.00.
In the case of `NC(=O)c1cc(-c2cccs2)cc2c(C3CCN(S(=O)(=O)CCCNC4CCCC4)CC3)c[nH]c12` [Example 13, 3-(1-{[3-(cyclopentylamino)propyl]sulfonyl}-4-piperidinyl)-5-(2-thienyl)-1H-indole-7-carboxamide] it was more than 5.00; in that of `NC(=O)c1cc(-c2cccs2)cc2c(C3CCN(S(=O)(=O)CCCN4CCC(O)CC4)CC3)c[nH]c12` [Example 14, 3-(1-{[3-(4-hydroxy-1-piperidinyl)propyl]sulfonyl}-4-piperidinyl)-5-(2-thienyl)-1-indole-7-carboxamide], more than 5.00; in that of `NC(=O)c1cc(-c2cccs2)cc2c(C3CCN(S(=O)(=O)CCNC4CCCC4)CC3)c[nH]c12` [Example 15, 3-(1-{[2-(cyclopentylamino)ethyl]sulfonyl}-4-piperidinyl)-5-(2-thienyl)-1H-indole-7-carboxamide], more than 5.00.
Under `NC(=O)c1cc(-c2ccsc2)cc2c(C3CCN(S(=O)(=O)CCN4CCCC4)CC3)c[nH]c12` [Example 16, 3-(1-{[2-(1-pyrrolidinyl)ethyl]sulfonyl}-4-piperidinyl)-5-(3-thienyl)-1H-indole-7-carboxamide] stands more than 5.00; under `CN(C)CCS(=O)(=O)N1CCC(c2c[nH]c3c(C(N)=O)cc(-c4ccsc4)cc23)CC1` [Example 17, 3-(1-{[2-(dimethylamino)ethyl]sulfonyl}-4-piperidinyl)-5-(3-thienyl)-1H-indole-7-carboxamide], more than 5.00.
In the case of `NC(=O)c1cc(-c2ccsc2)cc2c(C3CCN(S(=O)(=O)CCNC4CCCC4)CC3)c[nH]c12` [Example 18, 3-(1-{[2-(cyclopentylamino)ethyl]sulfonyl}-4-piperidinyl)-5-(3-thienyl)-11 indole-7-carboxamide] it was more than 5.00.
Turning to `NC(=O)c1cc(-c2ccsc2)cc2c(C3CCN(S(=O)(=O)CCNC4CCC(O)CC4)CC3)c[nH]c12` (stereo not shown) [Example 19, 3-[1-({2-[(4-hydroxycyclohexyl)amino]ethyl}sulfonyl)-4-piperidinyl]-5-(3-thienyl)-1H-indole-7-carboxamide], the pIC50 was more than 5.00.
In the case of `NC(=O)c1cc(-c2ccccc2)cc2c(C3CCN(S(=O)(=O)CCO)CC3)c[nH]c12` [Example 20, 3-{1-[(2-hydroxyethyl)sulfonyl]-4-piperidinyl}-5-phenyl-1H-indole-7-carboxamide] it was more than 5.00.
In turn, `NC(=O)c1cc(-c2ccc(Cl)s2)cc2c(C3CCN(S(=O)(=O)CCCN4CCCC4)CC3)c[nH]c12` [Example 21, 5-(5-chloro-2-thienyl)-3-(1-{[3-(1-pyrrolidinyl)propyl]sulfonyl}-4-piperidinyl)-1H-indole-7-carboxamide] had a pIC50 of more than 5.00.
`CNCCS(=O)(=O)N1CCC(c2c[nH]c3c(C(N)=O)cc(-c4ccccc4)cc23)CC1` [Example 22, 3-(1-{[2-(methylamino)ethyl]sulfonyl}-4-piperidinyl)-5-phenyl-1H-indole-7-carboxamide] gave a pIC50 of more than 5.00.
For the compound `NC(=O)c1cc(-c2ccc(CO)s2)cc2c(C3CCN(S(=O)(=O)CCCN4CCCC4)CC3)c[nH]c12` [Example 63, 5-[5-(hydroxymethyl)-2-thienyl]-3-(1-{[3-(1-pyrrolidinyl)propyl]sulfonyl}-4-piperidinyl)-1H-indole-7-carboxamide], the pIC50 is more than 5.00.
In turn, `NC(=O)c1cc(-c2ccc(CN3CCCC3)s2)cc2c(C3CCN(S(=O)(=O)CCCN4CCCC4)CC3)c[nH]c12` [Example 64, 5-[5-(1-pyrrolidinylmethyl)-2-thienyl]-3-(1-{[3-(1-pyrrolidinyl)propyl]sulfonyl}-4-piperidinyl)-1H-indole-7-carboxamide] had a pIC50 of more than 5.00.
As for `CNCc1ccc(-c2cc(C(N)=O)c3[nH]cc(C4CCN(S(=O)(=O)CCCN5CCOCC5)CC4)c3c2)s1` [Example 65, 5-{5-[(methylamino)methyl]-2-thienyl}-3-(1-{[3-(4-morpholinyl)propyl]sulfonyl}-4-piperidinyl)-1H-indole-7-carboxamide], the pIC50 was more than 5.00.
`CCNCc1ccc(-c2cc(C(N)=O)c3[nH]cc(C4CCN(S(=O)(=O)CCCN5CCOCC5)CC4)c3c2)s1` [Example 66, 5-{5-[(ethylamino)methyl]-2-thienyl}-3-(1-{[3-(4-morpholinyl)propyl]sulfonyl}-4-piperidinyl)-1H-indole-7-carboxamide] gave a pIC50 of more than 5.00.
As to `CC(C)N(CCCS(=O)(=O)N1CCC(c2c[nH]c3c(C(N)=O)cc(-c4ccccc4)cc23)CC1)C(C)C` [Example 67, 3-[1-({3-[bis(1-methylethyl)amino]propyl}sulfonyl)-4-piperidinyl]-5-phenyl-1H-indole-7-carboxamide], the pIC50 is more than 5.00.
On to `COCCS(=O)(=O)N1CCC(c2c[nH]c3c(C(N)=O)cc(-c4ccccc4)cc23)CC1` [Example 68, 3-(1-{[2-(methyloxy)ethyl]sulfonyl}-4-piperidinyl)-5-phenyl-1 indole-7-carboxamide], for which the pIC50 was more than 5.00.
Turning to `C[C@@H]1CC[C@@H](C)N1CCCS(=O)(=O)N1CCC(c2c[nH]c3c(C(N)=O)cc(-c4ccccc4)cc23)CC1` [Example 69, 3-[1-({3-[(2R,5R)-2,5-dimethyl-1-pyrrolidinyl]propyl}sulfonyl)-4-piperidinyl]-5-phenyl-1H-indole-7-carboxamide], the pIC50 is more than 5.00.
Regarding `CN1CCN(CCCS(=O)(=O)N2CCC(c3c[nH]c4c(C(N)=O)cc(-c5cccs5)cc34)CC2)CC1` [Example 70, 3-(1-{[3-(4-methyl-1-piperazinyl)propyl]sulfonyl}-4-piperidinyl)-5-(2-thienyl)-1H-indole-7-carboxamide], the pIC50 was more than 5.00.
`NC(=O)c1cc(-c2ccsc2)cc2c(C3CCN(S(=O)(=O)CCCN4CCC(O)CC4)CC3)c[nH]c12` [Example 71, 3-(1-{[3-(4-hydroxy-1-piperidinyl)propyl]sulfonyl}-4-piperidinyl)-5-(3-thienyl)-1H-indole-7-carboxamide] gave a negative-log IC50 (pIC50) of more than 5.00.

The term pIC50 denotes the IC50 on a negative log10 scale, so that one unit is a factor of ten.

Source of the values: US7858796B2, “Chemical compounds” (Glaxo Group Limited, priority 2004, dated 2010).
